# Experimental data as given in US9783511B2, “Carbamate benzoxazine propionic acids and acid derivatives for modulation of RORgamma activity and the treatment of disease” (Merck Sharp & Dohme Corp., priority 2013, dated 2017).
# Target: human RORgammaT-Ligand Binding Domain (LBD) (Homo sapiens (Human), UniProt P51449)
# Assay: RORγ-Ligand Binding Domain TR-FRET Assay (co-activator peptide SRC1_2 recruitment)
# Format: biochemical
# Details: HIS-tagged RORγ-LBD 3 nM, biotinylated SRC1 LXXLL peptide 100 nM, incubated overnight at 4° C., 665 nm/615 nm ratio
# Source text: Activation of RORgammaT activity can be measured using, e.g., a biochemical TR-FRET assay. In such an assay, interaction of cofactor-derived peptides with human RORgammaT-Ligand Binding Domain (LBD) can be measured.
# To identify novel antagonists of RORgammaT, an assay was developed which employs the interaction of RORgammaT with its co-activator peptide SRC1_2. […] The RORγ-Ligand Binding Domain TR-FRET Assay was run according to the following protocol.
# HIS-tagged RORγ-LBD protein was recombinantly expressed in Escherichia coli. The RORγ-LBD protein was purified by Ni^2+-affinity resin. Purified protein was then diluted in assay buffer (50 mM Tris pH 7.0, 50 mM KCl, 1 mM EDTA, 0.1 mM DTT, 100 μg/mL bovine serum albumin, delipidated) to obtain a RORγ-LBD final concentration of 3 nM.
# Compounds to be tested were injected to the 384-well assay plate using Acoustic Droplet Ejection technology by Echo 550 liquid handler (Labcyte, CA).
# Sequence of human RORgammaT-Ligand Binding Domain (LBD) (P51449 269-508): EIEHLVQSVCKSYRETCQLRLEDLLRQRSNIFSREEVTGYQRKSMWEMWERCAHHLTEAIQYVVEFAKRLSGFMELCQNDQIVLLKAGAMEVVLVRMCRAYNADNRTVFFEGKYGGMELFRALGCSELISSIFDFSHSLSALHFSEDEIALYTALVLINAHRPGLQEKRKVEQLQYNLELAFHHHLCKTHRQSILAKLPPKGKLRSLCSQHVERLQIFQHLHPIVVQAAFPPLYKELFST
row,Compound,IC50 [nM]
1,"Cc1cc(S(=O)(=O)N2C[C@H](C[C@H](C(=O)O)C3CC3)Oc3ccc(NC(=O)OC(C)(C)C(F)(F)F)cc32)ccc1F (single isomer, unassigned) [Example 10X, (R or S)-2-cyclopropyl-3-((S)-4-((4-fluoro-3-methylphenyl)sulfonyl)-6-((((1,1,1-trifluoro-2-methylpropan-2-yl)oxy)carbonyl)amino)-3,4-dihydro-2H-benzo[b][1,4]oxazin-2-yl)propanoic acid]",32.8
2,"COc1cc(S(=O)(=O)N2C[C@H](C[C@@](C)(O)C(=O)O)Oc3ccc(NC(=O)OC(C)(C)C(F)(F)F)cc32)ccc1F (single isomer, unassigned) [Example 18A, (R or S)-3-((S)-4-((4-fluoro-3-methoxyphenyl)sulfonyl)-6-((((1,1,1-trifluoro-2-methylpropan-2-yl)oxy)carbonyl)amino)-3,4-dihydro-2H-benzo[b][1,4]oxazin-2-yl)-2-hydroxy-2-methylpropanoic acid]",12.9
3,"COc1cc(S(=O)(=O)N2C[C@H](C[C@](C)(O)C(=O)O)Oc3ccc(NC(=O)OC(C)(C)C(F)(F)F)cc32)ccc1F (single isomer, unassigned) [Example 18C, (R or S)-3-((S)-4-((4-fluoro-3-methoxyphenyl)sulfonyl)-6-((((1,1,1-trifluoro-2-methylpropan-2-yl)oxy)carbonyl)amino)-3,4-dihydro-2H-benzo[b][1,4]oxazin-2-yl)-2-hydroxy-2-methylpropanoic acid]",25
4,"COc1cc(S(=O)(=O)N2C[C@H](CC(C)(CO)C(=O)O)Oc3ccc(NC(=O)OC(C)(C)C(F)(F)F)cc32)ccc1F (single isomer, unassigned) [Example 18J, (S or R)-3-((S)-4-((4-fluoro-3-methoxyphenyl)sulfonyl)-6-((((1,1,1-trifluoro-2-methylpropan-2-yl)oxy)carbonyl)amino)-3,4-dihydro-2H-benzo[b][1,4]oxazin-2-yl)-2-(hydroxymethyl)-2-methylpropanoic acid]",9.13
5,"COc1cc(S(=O)(=O)N2C[C@H](CC(C)(CO)C(=O)O)Oc3ccc(NC(=O)OC(C)(C)C(F)(F)F)cc32)ccc1F (single isomer, unassigned) [Example 18L, (S or R)-3-((S)-4-((4-fluoro-3-methoxyphenyl)sulfonyl)-6-((((1,1,1-trifluoro-2-methylpropan-2-yl)oxy)carbonyl)amino)-3,4-dihydro-2H-benzo[b][1,4]oxazin-2-yl)-2-(hydroxymethyl)-2-methylpropanoic acid]",10.4
6,"CC(C)(OC(=O)Nc1ccc2c(c1)N(S(=O)(=O)c1ccc(F)c(C(F)(F)F)c1)C[C@H]([C@@H](CC(=O)O)C1CC1)O2)C(F)(F)F (single isomer, unassigned) [Example 21A, (S or R)-3-cyclopropyl-3-((S)-4-((4-fluoro-3-(trifluoromethyl)phenyl)sulfonyl)-6-((((1,1,1-trifluoro-2-methylpropan-2-yl)oxy)carbonyl)amino)-3,4-dihydro-2H-benzo[b][1,4]oxazin-2-yl)propanoic acid]",28
7,"CC(C)(OC(=O)Nc1ccc2c(c1)N(S(=O)(=O)c1ccc(F)c(C(F)(F)F)c1)C[C@H]([C@H](CC(=O)O)C1CC1)O2)C(F)(F)F (single isomer, unassigned) [Example 21C, (S or R)-3-cyclopropyl-3-((S)-4-((4-fluoro-3-(trifluoromethyl)phenyl)sulfonyl)-6-((((1,1,1-trifluoro-2-methylpropan-2-yl)oxy)carbonyl)amino)-3,4-dihydro-2H-benzo[b][1,4]oxazin-2-yl)propanoic acid]",30.4
8,"Cc1ccc(S(=O)(=O)N2C[C@H]([C@H]3C[C@H]3C(=O)O)Oc3ccc(NC(=O)OC(C)(C)C(F)(F)F)cc32)cc1 (single isomer, unassigned) [Example 22E, (1S,2S or 1R,2R or 1S,2R or 1R,2S)-2-((S)-4-tosyl-6-((((1,1,1-trifluoro-2-methylpropan-2-yl)oxy)carbonyl)amino)-3,4-dihydro-2H-benzo[b][1,4]oxazin-2-yl)cyclopropanecarboxylic acid]",47.1
9,"Cc1ccc(S(=O)(=O)N2C[C@H]([C@@H]3C[C@@H]3C(=O)O)Oc3ccc(NC(=O)OC(C)(C)C(F)(F)F)cc32)cc1 (single isomer, unassigned) [Example 22F, (1S,2S or 1R,2R or 1S,2R or 1R,2S)-2-((S)-4-tosyl-6-((((1,1,1-trifluoro-2-methylpropan-2-yl)oxy)carbonyl)amino)-3,4-dihydro-2H-benzo[b][1,4]oxazin-2-yl)cylcopropanecarboxylic acid]",75.7
10,"Cc1ccc(S(=O)(=O)N2C[C@H]([C@H]3C[C@@H]3C(=O)O)Oc3ccc(NC(=O)OC(C)(C)C(F)(F)F)cc32)cc1 (single isomer, unassigned) [Example 22G, (1S,2S or 1R,2R or 1S,2R or 1R,2S)-2-((S)-4-tosyl-6-((((1,1,1-trifluoro-2-methylpropan-2-yl)oxy)carbonyl)amino)-3,4-dihydro-2H-benzo[b][1,4]oxazin-2-yl)cyclopropanecarboxylic acid]",34.2
11,"Cc1ccc(S(=O)(=O)N2C[C@H]([C@@H]3C[C@H]3C(=O)O)Oc3ccc(NC(=O)OC(C)(C)C(F)(F)F)cc32)cc1 (single isomer, unassigned) [Example 22H, (1S,2S or 1R,2R or 1S,2R or 1R,2S)-2-((S)-4-tosyl-6-((((1,1,1-trifluoro-2-methylpropan-2-yl)oxy)carbonyl)amino)-3,4-dihydro-2H-benzo[b][1,4]oxazin-2-yl)cyclopropanecarboxylic acid]",141
12,"COc1cc(S(=O)(=O)N2C[C@H]([C@@H]3C[C@H]3C(=O)O)Oc3ccc(NC(=O)OC(C)(C)C(F)(F)F)cc32)ccc1F (single isomer, unassigned) [Example 22J, (1R,2S or 1R,2R or 1S,2S or 1S,2R)-2-((S)-4-((4-fluoro-3-methoxyphenyl)sulfonyl)-6-((((1,1,1-trifluoro-2-methylpropan-2-yl)oxy)carbonyl)amino)-3,4-dihydro-2H-benzo[b][1,4]oxazin-2-yl)cyclopropanecarboxylic acid]",13.5
13,"COc1cc(S(=O)(=O)N2C[C@H]([C@H]3C[C@H]3C(=O)O)Oc3ccc(NC(=O)OC(C)(C)C(F)(F)F)cc32)ccc1F (single isomer, unassigned) [Example 22M, (1R,2S or 1R,2R or 1S,2S or 1S,2R)-2-((S)-4-((4-fluoro-3-methoxyphenyl)sulfonyl)-6-((((1,1,1-trifluoro-2-methylpropan-2-yl)oxy)carbonyl)amino)-3,4-dihydro-2H-benzo[b][1,4]oxazin-2-yl)cyclopropanecarboxylic acid]",8.71
14,"COc1cc(S(=O)(=O)N2C[C@H]([C@@H]3C[C@@H]3C(=O)O)Oc3ccc(NC(=O)OC(C)(C)C(F)(F)F)cc32)ccc1F (single isomer, unassigned) [Example 22N, (1R,2S or 1R,2R or 1S,2S or 1S,2R)-2-((S)-4-((4-fluoro-3-methoxyphenyl)sulfonyl)-6-((((1,1,1-trifluoro-2-methylpropan-2-yl)oxy)carbonyl)amino)-3,4-dihydro-2H-benzo[b][1,4]oxazin-2-yl)cyclopropanecarboxylic acid]",5.87
